We go through 33 compounds from US20230104936A1, “TRPML MODULATORS” (Casma Therapeutics, Inc., priority 2019, published 2023).

The structures appear in SMILES notation. Where only a bound is given, the exact number is not on record here.

This test deals with TFEB. Nature of the test: TFEB nuclear translocation assay, HeLa wt cells. In kind it is cell-based. The settings on record: Homo sapiens, HeLa, 2 h, 2 hrs compound treatment, Table 1 does not say HeLa wt or TRPML1 KO. In short, it runs like this:
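HeLa wt or TRPML1 KO cells treated 2 hrs with compounds at 37° C, fixed in 4% PFA, immunostained with anti-TFEB plus Alexa 488 secondary and Hoechst. Imaged at ×20, four fields/well; read-out is nuclear/perinuclear-ring TFEB intensity ratio, reported as AC50.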
Compound `CN(C)S(=O)(=O)c1ccc(S(=O)(=O)Nc2cccc(Cl)c2N2CCCCC2)cc1` [Compound A-652, N4-[3-chloro-2-(piperidin-1-yl)phenyl]-N1,N1-dimethylbenzene-1,4-disulfonamide] showed a half-maximal activity concentration (AC50) of at most 2000 nM.
Regarding `CN(C)S(=O)(=O)c1ccc(S(=O)(=O)Nc2ccccc2N2CCC3(CC2)COC(C)(C)C3)c(F)c1` [Compound A-653, N4-(2-{3,3-dimethyl-2-oxa-8-azaspiro[4.5]decan-8-yl}phenyl)-3-fluoro-N1,N1-dimethylbenzene-1,4-disulfonamide], the AC50 fell in the range of 2010 to 8000 nM.
As for `CC1(C)Cc2cc(S(=O)(=O)Nc3ccccc3N3CCC4(CCOCC4)CC3)ccc2O1` [Compound A-654, 2,2-dimethyl-N-(2-{3-oxa-9-azaspiro[5.5]undecan-9-yl}phenyl)-2,3-dihydro-1-benzofuran-5-sulfonamide], the figure is at most 2000 nM; as for `COCC1(C)CCN(c2ccccc2NS(=O)(=O)c2ccc(C(C)(C)OC)cc2)CC1` [Compound A-655, N-{2-[4-(methoxymethyl)-4-methylpiperidin-1-yl]phenyl}-4-(2-methoxypropan-2-yl)benzene-1-sulfonamide], 2010 to 8000 nM; as for `COC(C)(C)c1ccc(S(=O)(=O)Nc2ccccc2N2CCC3(CC2)COC(C)(C)C3)cc1` [Compound A-656, N-(2-{3,3-dimethyl-2-oxa-8-azaspiro[4.5]decan-8-yl}phenyl)-4-(2-methoxypropan-2-yl)benzene-1-sulfonamide], 2010 to 8000 nM.
With `CC(C)C(=O)c1ccc(S(=O)(=O)Nc2ccccc2N2CCC3(CC2)COC(C)(C)C3)cc1` [Compound A-657, N-(2-{3,3-dimethyl-2-oxa-8-azaspiro[4.5]decan-8-yl}phenyl)-4-(2-methylpropanoyl)benzene-1-sulfonamide], the concentration at half-maximal activity (AC50) fell in the range of 8010 to 9990 nM.
The compound `CC(C)c1ccc(S(=O)(=O)Nc2ccccc2N2CCC3(CC2)COC(C)(C)C3)cc1` [Compound A-658, N-(2-{3,3-dimethyl-2-oxa-8-azaspiro[4.5]decan-8-yl}phenyl)-4-(propan-2-yl)benzene-1-sulfonamide] had a half-maximal activity concentration (AC50) of at most 2000 nM.
In turn, `COC1Cc2ccc(S(=O)(=O)Nc3ccccc3N3CCC4(CC3)COC(C)(C)C4)cc2C1` (stereo not drawn) [Compound A-659, N-(2-{3,3-dimethyl-2-oxa-8-azaspiro[4.5]decan-8-yl]phenyl)-2-methoxy-2,3-dihydro-1H-indene-5-sulfonamide] registered a half-maximal activity concentration (AC50) of 2010 to 8000 nM.
On to `CC1(C)CC2(CCN(c3ccccc3NS(=O)(=O)c3ccc(S(C)(=O)=O)c(F)c3)CC2)CO1` [Compound A-660, N-(2-{3,3-dimethyl-2-oxa-8-azaspiro[4.5]decan-8-yl}phenyl)-3-fluoro-4-methanesulfonylbenzene-1-sulfonamide], for which the AC50 fell in the range of 8010 to 9990 nM.
Compound `Cc1cc(S(=O)(=O)Nc2ccccc2N2CCC3(CC2)COC(C)(C)C3)ccc1F` [Compound A-661, N-(2-{3,3-dimethyl-2-oxa-8-azaspiro[4.5]decan-8-yl}phenyl)-4-fluoro-3-methylbenzene-1-sulfonamide] showed a half-maximal activity concentration (AC50) of 2010 to 8000 nM.
Compound `Cc1ccc(S(=O)(=O)Nc2ccccc2N2CCC3(CC2)COC(C)(C)C3)cc1` [Compound A-662, N-(2-{3,3-dimethyl-2-oxa-8-azaspiro[4.5]decan-8-yl}phenyl)-4-methylbenzene-1-sulfonamide] showed an AC50 of at most 2000 nM.
`Cc1ccc(CS(=O)(=O)Nc2ccccc2N2CCC3(CC2)COC(C)(C)C3)cc1C` [Compound A-663, N-(2-{3,3-dimethyl-2-oxa-8-azaspiro[4.5]decan-8-yl}phenyl)-1-(3,4-dimethylphenyl)methanesulfonamide] yielded an AC50 of at most 2000 nM.
`Cc1cccc(CS(=O)(=O)Nc2ccccc2N2CCC3(CC2)COC(C)(C)C3)c1` [Compound A-664, N-(2-{3,3-dimethyl-2-oxa-8-azaspiro[4.5]decan-8-yl}phenyl)-1-(3-methylphenyl)methanesulfonamide]: the AC50 was at most 2000 nM.
As for `Cc1cccc(S(=O)(=O)Nc2ccccc2N2CCC3(CC2)COC(C)(C)C3)c1` [Compound A-665, N-(2-{3,3-dimethyl-2-oxa-8-azaspiro[4.5]decan-8-yl}phenyl)-3-methylbenzene-1-sulfonamide], the AC50 fell in the range of 2010 to 8000 nM.
As for `CC1(C)CC2(CCN(c3ccccc3NS(=O)(=O)c3cnn(C4CCC4)c3)CC2)CO1` [Compound A-666, 1-cyclobutyl-N-(2-{3,3-dimethyl-2-oxa-8-azaspiro[4.5]decan-8-yl}phenyl)-1H-pyrazole-4-sulfonamide], the AC50 lay within 2010 to 8000 nM.
As for `CC1(C)CC2(CCN(c3ccccc3NS(=O)(=O)c3ccc(OC(F)F)c(F)c3)CC2)CO1` [Compound A-667, 4-(difluoromethoxy)-N-(2-{3,3-dimethyl-2-oxa-8-azaspiro[4.5]decan-8-yl}phenyl)-3-fluorobenzene-1-sulfonamide], the AC50 lay in the range of 2010 to 8000 nM.
The compound `CC1(C)CC2(CCN(c3ccccc3NS(=O)(=O)Cc3cccc(F)c3)CC2)CO1` [Compound A-668, N-(2-{3,3-dimethyl-2-oxa-8-azaspiro[4.5]decan-8-yl}phenyl)-1-(3-fluorophenyl)methanesulfonamide] displayed an AC50 of 2010 to 8000 nM.
In turn, `CC1(C)CC2(CCN(c3ccccc3NS(=O)(=O)c3cccc(C4CC4)c3)CC2)CO1` [Compound A-669, 3-cyclopropyl-N-(2-{3,3-dimethyl-2-oxa-8-azaspiro[4.5]decan-8-yl}phenyl)benzene-1-sulfonamide] showed an AC50 of at most 2000 nM.
`CC1(C)CC2(CCN(c3ccccc3NS(=O)(=O)c3cccc(C4OCCO4)c3)CC2)CO1` [Compound A-670, N-(2-{3,3-dimethyl-2-oxa-8-azaspiro[4.5]decan-8-yl}phenyl)-3-(1,3-dioxolan-2-yl)benzene-1-sulfonamide] returned an AC50 of 2010 to 8000 nM.
For the compound `CC1(C)CC2(CCN(c3ccccc3NS(=O)(=O)c3ccc(C(F)F)cc3)CC2)CO1` [Compound A-671, 4-(difluoromethyl)-N-(2-{3,3-dimethyl-2-oxa-8-azaspiro[4.5]decan-8-yl}phenyl)benzene-1-sulfonamide], the concentration at half-maximal activity (AC50) was at most 2000 nM.
Compound `CC1(C)CC2(CCN(c3ccccc3NS(=O)(=O)c3ccc(C4CC4)cc3)CC2)CO1` [Compound A-672, 4-cyclopropyl-N-(2-{3,3-dimethyl-2-oxa-8-azaspiro[4.5]decan-8-yl}phenyl)benzene-1-sulfonamide] displayed a concentration at half-maximal activity (AC50) of at most 2000 nM.
For `CC1(C)CC2(CCN(c3ccccc3NS(=O)(=O)c3ccc(OC(F)(F)F)cc3)CC2)CO1` [Compound A-673, N-(2-{3,3-dimethyl-2-oxa-8-azaspiro[4.5]decan-8-yl}phenyl)-4-(trifluoromethoxy)benzene-1-sulfonamide], the AC50 is 2010 to 8000 nM.
In the case of `CC1(C)CC2(CCN(c3ccccc3NS(=O)(=O)c3ccc(C4CC4)s3)CC2)CO1` [Compound A-674, 5-cyclopropyl-N-(2-{3,3-dimethyl-2-oxa-8-azaspiro[4.5]decan-8-yl}phenyl)thiophene-2-sulfonamide], the concentration at half-maximal activity (AC50) was at most 2000 nM.
The same measure for `CC1(C)CC2(CCN(c3ccccc3NS(=O)(=O)C3=Cc4ccccc4OC3)CC2)CO1` [Compound A-675, N-(2-{3,3-dimethyl-2-oxa-8-azaspiro[4.5]decan-8-yl}phenyl)-2H-chromene-3-sulfonamide]: at most 2000 nM.
For `CC1(C)CC2(CCN(c3ccccc3NS(=O)(=O)C3=Cc4ccccc4CC3)CC2)CO1` [Compound A-676, N-(2-{3,3-dimethyl-2-oxa-8-azaspiro[4.5]decan-8-yl}phenyl)-3,4-dihydronaphthalene-2-sulfonamide], the AC50 fell in the range of 2010 to 8000 nM.
For the compound `Cc1ccc(CS(=O)(=O)Nc2ccccc2N2CCC3(CC2)COC(C)(C)C3)cc1F` [Compound A-677, N-(2-{3,3-dimethyl-2-oxa-8-azaspiro[4.5]decan-8-yl}phenyl)-1-(3-fluoro-4-methylphenyl)methanesulfonamide], the AC50 is at most 2000 nM.
As to `CC1(C)CC2(CCN(c3ccccc3NS(=O)(=O)Cc3cccc(Cl)c3)CC2)CO1` [Compound A-678, 1-(3-chlorophenyl)-N-(2-{3,3-dimethyl-2-oxa-8-azaspiro[4.5]decan-8-yl}phenyl)methanesulfonamide], the half-maximal activity concentration (AC50) is at most 2000 nM.
The same measure for `Cc1ccc(F)c(CS(=O)(=O)Nc2ccccc2N2CCC3(CC2)COC(C)(C)C3)c1` [Compound A-679, N-(2-{3,3-dimethyl-2-oxa-8-azaspiro[4.5]decan-8-yl}phenyl)-1-(2-fluoro-5-methylphenyl)methanesulfonamide]: at most 2000 nM; for `COCC1(C)CCN(c2ccccc2NS(=O)(=O)Cc2cccc(S(=O)(=O)N(C)C)c2)CC1` [Compound A-680, 3-[({2-[4-(methoxymethyl)-4-methylpiperidin-1-yl]phenyl}sulfamoyl)methyl]-N,N-dimethylbenzene-1-sulfonamide]: 8010 to 9990 nM; for `COCC1(C)CCN(c2c(F)cccc2NS(=O)(=O)c2ccc(S(=O)(=O)N(C)C)cc2)CC1` [Compound A-681, N4-{3-fluoro-2-[4-(methoxymethyl)-4-methylpiperidin-1-yl]phenyl}-N1,N1-dimethylbenzene-1,4-disulfonamide]: at most 2000 nM.
Regarding `COCC1(C)CCN(c2ccccc2NS(=O)(=O)c2ccc3c(c2)COC3(C)C)CC1` [Compound A-682, N-{2-[4-(methoxymethyl)-4-methylpiperidin-1-yl]phenyl}-1,1-dimethyl-1,3-dihydro-2-benzofuran-5-sulfonamide], the AC50 fell in the range of 2010 to 8000 nM.
Take `COCC1(C)CCN(c2ccccc2NS(=O)(=O)c2ccc3c(c2)C(C)(C)OC3)CC1` [Compound A-683, N-{2-[4-(methoxymethyl)-4-methylpiperidin-1-yl]phenyl}-3,3-dimethyl-1,3-dihydro-2-benzofuran-5-sulfonamide]: the concentration at half-maximal activity (AC50) was 2010 to 8000 nM.
`COCC1(C)CCN(c2ccccc2NC(c2ccc(S(=O)(=O)N(C)C)cc2)C(F)(F)F)CC1` (stereo not drawn) [Compound A-684, N,N-dimethyl-4-(2,2,2-trifluoro-1-((2-(4-(methoxymethyl)-4-methylpiperidin-1-yl)phenyl)amino)ethyl)benzenesulfonamide]: the half-maximal activity concentration (AC50) lay in the range of 2010 to 8000 nM.
